Measurements as given in PMC10962963 (Proceedings of the National Academy of Sciences of the …, 2024).

T1: polycystin-2 (PC2, TRPP2), PC2_F604P (Homo sapiens, UniProt Q13563, F604P)
T1 sequence (Q13563 185-719 F604P): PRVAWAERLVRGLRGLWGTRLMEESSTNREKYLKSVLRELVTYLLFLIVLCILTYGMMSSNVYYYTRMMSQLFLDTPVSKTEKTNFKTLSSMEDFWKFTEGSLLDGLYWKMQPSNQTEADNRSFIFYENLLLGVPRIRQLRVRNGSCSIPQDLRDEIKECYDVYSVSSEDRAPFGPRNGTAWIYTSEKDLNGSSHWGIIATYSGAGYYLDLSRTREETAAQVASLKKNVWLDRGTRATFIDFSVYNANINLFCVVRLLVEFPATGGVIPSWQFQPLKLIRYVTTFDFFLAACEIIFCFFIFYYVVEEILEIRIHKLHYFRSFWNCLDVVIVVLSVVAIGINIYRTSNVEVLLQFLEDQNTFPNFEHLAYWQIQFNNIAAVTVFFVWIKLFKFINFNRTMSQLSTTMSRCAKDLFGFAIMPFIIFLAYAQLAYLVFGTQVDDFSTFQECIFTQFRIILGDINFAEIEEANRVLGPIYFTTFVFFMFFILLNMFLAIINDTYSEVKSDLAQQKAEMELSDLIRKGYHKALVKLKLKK


Tests used:
[1] = target: T1, polycystin-2 (PC2, TRPP2), PC2_F604P; test: cryo-EM structure; assay type: cell-based
[2] = target: the molecule itself; test: cryo-EM structure

| EC50 [1] [µM] | Molecule | binding result [2] |
| --- | --- | --- |
| 5.2 | CC1CC(C)(C)N(C(=O)CN2C(=O)c3ccccc3C2=O)c2ccccc21 (centres unmarked) [ML-SA1] |  |
|  | truncated PC2_F604P protein containing the fragment Pro185-Lys719 (domain or fragment, human, UniProt Q13563 185-719, looked up) PRVAWAERLVRGLRGLWGTRLMEESSTNREKYLKSVLRELVTYLLFLIVLCILTYGMMSSNVYYYTRMMSQLFLDTPVSKTEKTNFKTLSSMEDFWKFTEGSLLDGLYWKMQPSNQTEADNRSFIFYENLLLGVPRIRQLRVRNGSCSIPQDLRDEIKECYDVYSVSSEDRAPFGPRNGTAWIYTSEKDLNGSSHWGIIATYSGAGYYLDLSRTREETAAQVASLKKNVWLDRGTRATFIDFSVYNANINLFCVVRLLVEFPATGGVIPSWQFQPLKLIRYVTTFDFFLAACEIIFCFFIFYYVVEEILEIRIHKLHYFRSFWNCLDVVIVVLSVVAIGINIYRTSNVEVLLQFLEDQNTFPNFEHLAYWQIQFNNIAAVTVFFVWIKLFKFINFNRTMSQLSTTMSRCAKDLFGFAIMPFIIFLAYAQLAYLVFGTQVDDFSTFQECIFTQFRIILGDINFAEIEEANRVLGPIYFTTFVFFMFFILLNMFLAIINDTYSEVKSDLAQQKAEMELSDLIRKGYHKALVKLKLKK | binds |
